Assay results reported in patent publication US11492343B2, “Polymorph of flibanserin and preparation method thereof and use of same” (priority 2016, dated 2022).

Experiments:
[1] = prior art; cited from earlier work
[2] = Solubility of crystal forms in pH 6.8 buffer solution (HPLC of filtrate); format: physicochemical; details: for Solubility in pH 6.8 buffer: 20 mg in 1 mL pH 6.8 buffer, suspension equilibrated for 1 hour, 0.45 μm filter, HPLC; for Solubility compared with crystal form A: in physiological solution
Description: The solubility of several new crystal forms prepared in the above examples and Form A (prepared according to the method of WO2003/014079) in a pH buffer solution (pH 6.8) was determined. Precisely weigh 20 mg Form I, Form II, Form V and Form A in a 2-mL glass vial, add 1 mL of pH 6.8 buffer, seal with cap, and mix on a rotating mixer. After the suspension was equilibrated for 1 hour, the mixture was filtered through a 0.45 μm needle filter, and the concentration of flibanserin in the filtrate was analyzed by HPLC to obtain the solubility of different crystal forms.

[3] = prior art WO2003/014079; cited from earlier work

Row | Solubility in pH 6.8 buffer [2] [mg/mL] | Solubility compared with crystal form A [2] | Structure (SMILES) | Solubility in water [1] | Stability under pressure and mechanical stress conditions [3]
1 | 0.004 | greater | O=c1[nH]c2ccccc2n1CCN1CCN(c2cccc(C(F)(F)F)c2)CC1 [Form I] | – | –
2 | 0.008 | greater | O=c1[nH]c2ccccc2n1CCN1CCN(c2cccc(C(F)(F)F)c2)CC1 [Form II] | – | –

More lines, now with the values behind:

Row | Structure (SMILES) | Solubility in pH 6.8 buffer [2] [mg/mL] | Solubility compared with crystal form A [2] | Solubility in water [1] | Stability under pressure and mechanical stress conditions [3]
3 | O=c1[nH]c2ccccc2n1CCN1CCN(c2cccc(C(F)(F)F)c2)CC1 [Form A] | – | – | very small | –
4 | O=c1[nH]c2ccccc2n1CCN1CCN(c2cccc(C(F)(F)F)c2)CC1 [Form V] | 0.010 | greater | – | –
5 | O=c1[nH]c2ccccc2n1CCN1CCN(c2cccc(C(F)(F)F)c2)CC1 [Form B] | – | – | – | low stability
